The values below are quoted from earlier work in patent publication US10945981B2, “Methods for treating familial adenomatous polyposis” (CANCER PREVENTION PHARMACEUTICALS, INC., priority 2019, dated 2021).

Structures are written as SMILES.

The conditions of the data set: in vivo; cited from earlier work.

For the compound `CSc1ccc(/C=C2/C(C)=C(CC(=O)O)c3cc(F)ccc32)cc1` [sulfide metabolite], the Mean half-life is 16.4 h.
